Laboratory results published in patent publication US8716226B2, “3,5 phenyl-substituted beta amino acid derivatives as integrin antagonists” (Saint Louis University, priority 2012, dated 2014).

Experiments:
α5β1 = biological target: T1, α5β1 (Homo sapiens, UniProt P05556+P08648); experiment: K562 cell adhesion assay for α5β1 function; format: cell-based; conditions: K562 cells, adhesion to human plasma fibronectin
T1 construct: K562 cells (American Type Culture Collection, Manassas, Va.) which naturally express high levels of α5β1; endogenous in cells; host or cells: K562 (human erythroleukemia, ATCC)
T1 sequence (P08648 42-894 limits assumed): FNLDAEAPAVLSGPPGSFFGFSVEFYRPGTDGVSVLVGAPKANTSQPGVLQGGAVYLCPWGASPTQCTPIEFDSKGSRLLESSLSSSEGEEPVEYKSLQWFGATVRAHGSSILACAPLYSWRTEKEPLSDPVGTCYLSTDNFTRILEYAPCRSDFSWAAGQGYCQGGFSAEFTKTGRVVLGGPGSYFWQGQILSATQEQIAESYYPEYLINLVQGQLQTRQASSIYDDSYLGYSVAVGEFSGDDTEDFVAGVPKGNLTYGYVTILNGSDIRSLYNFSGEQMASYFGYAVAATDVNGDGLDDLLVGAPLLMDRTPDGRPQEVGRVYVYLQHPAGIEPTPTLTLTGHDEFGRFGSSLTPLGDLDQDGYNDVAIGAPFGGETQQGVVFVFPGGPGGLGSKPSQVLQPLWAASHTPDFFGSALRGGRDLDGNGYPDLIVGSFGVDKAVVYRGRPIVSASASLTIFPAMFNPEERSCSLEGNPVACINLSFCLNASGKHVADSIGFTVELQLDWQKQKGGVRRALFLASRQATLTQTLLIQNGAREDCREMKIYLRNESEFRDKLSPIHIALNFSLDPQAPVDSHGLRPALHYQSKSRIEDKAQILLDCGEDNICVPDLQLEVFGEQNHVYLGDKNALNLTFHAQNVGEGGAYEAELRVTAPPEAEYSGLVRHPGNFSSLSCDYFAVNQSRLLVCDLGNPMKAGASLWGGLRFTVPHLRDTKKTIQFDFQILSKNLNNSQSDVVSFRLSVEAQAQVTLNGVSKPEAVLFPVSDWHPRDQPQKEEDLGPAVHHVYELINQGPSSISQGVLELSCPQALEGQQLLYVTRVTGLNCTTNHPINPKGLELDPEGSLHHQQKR
T1 sequence (P08648 895-1049 partner limits assumed): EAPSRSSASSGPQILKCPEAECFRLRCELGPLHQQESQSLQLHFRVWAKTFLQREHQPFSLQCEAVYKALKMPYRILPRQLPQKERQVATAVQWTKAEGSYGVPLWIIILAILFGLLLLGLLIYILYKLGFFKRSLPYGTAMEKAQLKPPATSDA
T1 sequence (P05556 21-798): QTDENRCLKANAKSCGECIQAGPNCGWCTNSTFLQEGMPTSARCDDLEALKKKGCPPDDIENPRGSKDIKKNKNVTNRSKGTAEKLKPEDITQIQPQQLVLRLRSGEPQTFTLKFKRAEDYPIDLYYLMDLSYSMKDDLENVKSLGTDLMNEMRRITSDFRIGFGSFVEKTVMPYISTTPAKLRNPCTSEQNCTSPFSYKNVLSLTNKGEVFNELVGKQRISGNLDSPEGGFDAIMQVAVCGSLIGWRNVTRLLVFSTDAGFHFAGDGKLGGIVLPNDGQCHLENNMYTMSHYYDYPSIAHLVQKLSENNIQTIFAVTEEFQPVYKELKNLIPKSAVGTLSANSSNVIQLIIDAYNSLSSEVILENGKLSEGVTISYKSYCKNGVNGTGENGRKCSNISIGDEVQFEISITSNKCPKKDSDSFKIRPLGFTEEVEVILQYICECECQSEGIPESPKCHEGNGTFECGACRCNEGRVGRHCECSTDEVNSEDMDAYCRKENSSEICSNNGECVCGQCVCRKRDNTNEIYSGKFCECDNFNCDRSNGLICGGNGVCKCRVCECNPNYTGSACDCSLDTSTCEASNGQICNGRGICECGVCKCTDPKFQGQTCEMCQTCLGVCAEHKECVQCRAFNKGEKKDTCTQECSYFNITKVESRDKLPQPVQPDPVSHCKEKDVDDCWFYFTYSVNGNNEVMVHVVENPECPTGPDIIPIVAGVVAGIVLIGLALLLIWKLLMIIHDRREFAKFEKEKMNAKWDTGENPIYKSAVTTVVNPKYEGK
Description: K562 Cell Adhesion Assay for α5β1 Function.
(§1) Purified human plasma fibronectin (Calbiochem/EMD Biosciences) diluted to 5 μg/ml in TS buffer (25 mM Tris 7.4, 150 mM NaCl) was added to wells (100 μl/well) of a 96-well microtiter plate (Immulon 2HB 96-well; VWR Scientific) and incubated overnight at 4° C. The solution in each well was then replaced with 200 μl of blocking buffer (TS with 1% bovine serum albumin), and the plate incubated for 1 hr at 37° C. Compounds were diluted in test tubes to 2× the peak testing concentration in cell adhesion buffer consisting of Hanks Buffered Salts Solution (HBSS, cation-free, Sigma), 0.1% bovine serum albumin, 25 mM HEPES, and 200 μM MnCl2. […] The cells were washed with the cell adhesion buffer, counted using a hemocytometer, centrifuged and resuspended in cell adhesion buffer at 3×10^6 cells/ml. […] Remaining attached cells were detected by addition of 100 μl/well p-nitrophenylphosphate (Sigma) solution (15 mg tablet dissolved in 25 ml 50 mM NaAcetate, pH 5; 0.5% Triton-X-100), incubation for 30 min at 37° C., and then addition of 50 μl/well 1N NaOH to stop the enzyme reaction. Plates were read by colorimetric detection at 405 nm wavelength using a Tecan Safire II plate reader. Concentration-response curves were constructed by non-linear regression (best fit) analysis, and IC50 values were calculated for each compound. […]

[1] = biological target: T2, recombinant human integrin αvβ1 (Homo sapiens, UniProt P05556+P06756); experiment: Solid phase receptor assay for αvβ1 function; conditions: purified integrin binding to fibronectin-coated plate
T2 construct: purchased R&D Systems 6579-AV
T2 sequence (P06756 31-889 limits assumed): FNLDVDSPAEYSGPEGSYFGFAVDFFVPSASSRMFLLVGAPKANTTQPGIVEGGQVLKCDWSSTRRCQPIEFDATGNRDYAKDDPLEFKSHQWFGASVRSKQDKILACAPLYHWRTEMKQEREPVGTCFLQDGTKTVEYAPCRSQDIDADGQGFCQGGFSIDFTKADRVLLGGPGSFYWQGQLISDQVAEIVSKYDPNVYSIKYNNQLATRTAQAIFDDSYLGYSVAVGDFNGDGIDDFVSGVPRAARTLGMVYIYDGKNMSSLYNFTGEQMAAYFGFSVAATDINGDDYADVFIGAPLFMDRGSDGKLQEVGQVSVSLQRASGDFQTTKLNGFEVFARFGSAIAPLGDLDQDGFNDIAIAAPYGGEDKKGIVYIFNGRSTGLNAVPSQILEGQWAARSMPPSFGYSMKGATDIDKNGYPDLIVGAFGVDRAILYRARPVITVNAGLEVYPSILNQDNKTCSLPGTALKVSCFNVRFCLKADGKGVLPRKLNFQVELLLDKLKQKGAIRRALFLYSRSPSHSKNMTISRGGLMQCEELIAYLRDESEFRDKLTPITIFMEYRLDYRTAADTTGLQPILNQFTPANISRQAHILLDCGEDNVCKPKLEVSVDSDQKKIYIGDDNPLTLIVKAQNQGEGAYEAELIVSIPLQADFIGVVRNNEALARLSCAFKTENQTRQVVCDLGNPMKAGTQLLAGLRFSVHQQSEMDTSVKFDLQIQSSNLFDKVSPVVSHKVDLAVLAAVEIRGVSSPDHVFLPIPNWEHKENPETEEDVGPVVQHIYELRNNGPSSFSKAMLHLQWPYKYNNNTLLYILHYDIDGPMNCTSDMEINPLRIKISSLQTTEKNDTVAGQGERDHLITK
T2 sequence (P06756 891-992 partner limits assumed): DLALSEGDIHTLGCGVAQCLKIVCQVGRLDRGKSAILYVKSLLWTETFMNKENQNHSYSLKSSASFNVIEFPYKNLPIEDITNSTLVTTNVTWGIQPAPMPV
T2 sequence (P05556 21-728 limits assumed): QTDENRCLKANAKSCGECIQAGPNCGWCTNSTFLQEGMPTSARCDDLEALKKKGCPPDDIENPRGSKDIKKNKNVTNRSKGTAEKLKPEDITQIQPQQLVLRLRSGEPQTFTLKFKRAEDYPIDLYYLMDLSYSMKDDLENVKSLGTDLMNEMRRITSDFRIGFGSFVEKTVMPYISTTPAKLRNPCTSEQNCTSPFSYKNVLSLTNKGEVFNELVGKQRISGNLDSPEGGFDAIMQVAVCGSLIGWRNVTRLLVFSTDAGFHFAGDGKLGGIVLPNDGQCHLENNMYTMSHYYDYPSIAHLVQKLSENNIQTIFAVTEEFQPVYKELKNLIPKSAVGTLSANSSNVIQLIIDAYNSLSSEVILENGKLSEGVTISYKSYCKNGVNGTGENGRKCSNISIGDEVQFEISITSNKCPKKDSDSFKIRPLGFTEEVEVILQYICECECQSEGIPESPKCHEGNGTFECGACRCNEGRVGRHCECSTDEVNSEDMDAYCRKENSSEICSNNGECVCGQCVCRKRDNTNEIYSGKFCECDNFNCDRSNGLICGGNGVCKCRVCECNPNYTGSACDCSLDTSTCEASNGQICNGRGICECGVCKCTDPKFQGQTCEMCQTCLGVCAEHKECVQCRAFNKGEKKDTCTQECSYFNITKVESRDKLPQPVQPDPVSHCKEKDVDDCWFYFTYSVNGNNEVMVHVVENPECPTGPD
Description: Purified human fibronectin (R&D Systems, Inc) diluted to 5 μg/ml in TBS buffer (25 mM Tris 7.4, 137 mM NaCl, 2.7 mM KCl, 1 mM CaCl2, 1 mM MgCl2, 1 mM MnCl2) was added to wells (50 μl/well) of a 96-well half-well transparent microtiter plate (Costar 3690), and incubated overnight at 4° C. Wells were washed 3 times with 150 μl TBS, and 150 μl of blocking buffer (TBS with 1% bovine serum albumin) were added. The plate was incubated for 1 hr at 37° C., and then washed 3× with TBS buffer. Purified recombinant human integrin αvβ1 (R&D Systems 6579-AV) was diluted to 2.0 μg/ml in TBS/0.1% bovine serum albumin. Compounds were diluted into the integrin solution and then 50 μl was added to empty wells of the washed fibronectin-coated plate, according to a standard template, with each sample repeated in triplicate. After incubation for one hour at room temperature, the plate was washed 3× with 150 μl of TBS buffer. To each well, 50 μl of 1 μg/ml biotinylated anti-alpha v antibody (R&D Systems) in TBS/0.1% BSA was added, and the plate was covered and incubated for 1 hr at room temperature. After washing the plate 3× with 150 μl of TBS buffer, 50 μl of streptavidin-conjugated horseradish peroxidase (R&D Systems) was added to the wells, and the plate incubated for 20 min at room temperature. […] Plates were read by colorimetric detection at 650 nm wavelength using a Tecan Safire II plate reader.

αvβ3 = biological target: T3, αvβ3 (Homo sapiens, UniProt P05106+P06756); experiment: 293/b3 cell adhesion assay for αvβ3 function; format: cell-based; conditions: 293/b3 cells, adhesion to human vitronectin
T3 construct: expressed in transfected cells; host or cells: HEK 293 (293/b3)
T3 sequence (P06756 31-889 limits assumed): as the sequence (P06756 31-889 limits assumed) above
T3 sequence (P06756 891-1048 partner limits assumed): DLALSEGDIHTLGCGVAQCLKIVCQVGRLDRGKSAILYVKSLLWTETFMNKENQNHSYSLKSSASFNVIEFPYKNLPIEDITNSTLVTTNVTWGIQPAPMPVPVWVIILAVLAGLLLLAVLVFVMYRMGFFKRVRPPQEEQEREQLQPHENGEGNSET
T3 sequence (P05106 27-788): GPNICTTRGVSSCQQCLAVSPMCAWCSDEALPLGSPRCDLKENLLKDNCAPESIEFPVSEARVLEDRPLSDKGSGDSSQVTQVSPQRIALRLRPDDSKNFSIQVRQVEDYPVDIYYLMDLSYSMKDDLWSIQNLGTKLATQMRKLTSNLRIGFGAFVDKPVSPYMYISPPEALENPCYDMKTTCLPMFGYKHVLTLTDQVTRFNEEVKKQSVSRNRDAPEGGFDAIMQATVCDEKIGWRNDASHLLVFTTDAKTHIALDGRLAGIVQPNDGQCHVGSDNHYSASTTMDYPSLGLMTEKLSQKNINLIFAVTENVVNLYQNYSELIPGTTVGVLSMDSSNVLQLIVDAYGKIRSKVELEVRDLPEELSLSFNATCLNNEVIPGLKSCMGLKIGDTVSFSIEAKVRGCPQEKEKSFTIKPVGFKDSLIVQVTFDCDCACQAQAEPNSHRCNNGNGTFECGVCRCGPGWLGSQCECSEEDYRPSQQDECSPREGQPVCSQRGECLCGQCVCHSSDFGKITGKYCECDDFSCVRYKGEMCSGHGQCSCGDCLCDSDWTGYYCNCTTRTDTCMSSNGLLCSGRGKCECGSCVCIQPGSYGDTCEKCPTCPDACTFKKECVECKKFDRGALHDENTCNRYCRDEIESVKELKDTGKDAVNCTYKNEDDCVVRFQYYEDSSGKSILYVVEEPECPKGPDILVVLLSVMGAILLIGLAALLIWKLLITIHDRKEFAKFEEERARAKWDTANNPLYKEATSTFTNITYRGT
Description: 293/b3 Cell Adhesion Assay for αvβ3 Function.
as §1, with “human vitronectin” for “human plasma fibronectin”, “to 0.25” for “to 5”, “NaAcetate, pH5;” for “NaAcetate, pH 5;”

**Q.** With `CC(C)(C)c1cc(Br)cc([C@H](CC(=O)O)NC(=O)CNC(=O)c2cc(O)cc(NC3=NCC(O)CN3)c2)c1` (stereo partly drawn) [Example 1, (3S)—N-[3-hydroxy-5-[(1,4,5,6-tetrahydro-5-hydroxy-2-pyrimidinyl)amino]benzoyl]glycyl-3-(3-bromo-5-tert-butylphenyl)-β-alanine] as the compound, how does the IC50 (α5β1) read?
**A.** 4.2 nM

**Q.** And the IC50 [1]?
**A.** 2.5 nM

**Q.** And the IC50 (αvβ3)?
**A.** 0.8 nM
